The values below come from patent publication US5401777A, “Use of preparations of curcuma plants” (priority 1992, dated 1995).

In data set [1] the test system is histamine-induced stomach ulcers. Conditions: guinea pigs; Bhatia et al. 1964; cited from earlier work.
For a further data set, the system named is stomach mucosa. Conditions: oral, daily doses of 100 mg/kg over 6 days; Prasad et al. 1976; cited from earlier work.
Data set [2] relates to experimental stomach ulcers. Conditions: rats; cited from earlier work.
For data set [3], the system named is formation of peroxidized arachidonic acid products. The data set can be described thus: inhibition of Fe/ascorbate-induced formation of peroxidized arachidonic acid products in the cell-free system. The class given is biochemical. An excerpt:
(d) the formation of peroxidized arachidonic acid products in the cell-free system with an IC50 of approx. 1 μmol/l.

`COc1cc(/C=C/C(=O)CC(=O)/C=C/c2ccc(O)c(OC)c2)ccc1O` [curcumin]: the “protective effect against histamine-induced stomach ulcers” value in data set [1] was “did not find any protective effect”. Further, the “effect of high doses on the stomach mucosa” value with stomach mucosa is “damaged the stomach mucosa”. Moreover, the “effect on experimental stomach ulcers” value in data set [2] is reported as “does not cure”. Further, the “concentration in which the antioxidative effect is already achieved” value in data set [3] is reported as 1 μm.
